Literature values in patent US20050065088A1, “Pharmaceutical compositions and methods comprising combinations of 2-alkylidene-19-nor-vitamin D derivatives and parathyroid hormone” (Pfizer Inc., priority 2003, published 2005).

Experiments:
[1] = system: intestinal calcium transport; conditions: chronic dosing 7 days, 130 or 260 pmol dose (1,25-(OH)2D3 only 260 pmol/day)
HL-60 cells = conditions: result in words
[2] = system: serum calcium (bone calcium mobilization); conditions: for selectivity bone calcium mobilization versus intestinal calcium transport, in words / bone calcium mobilization, result in words: chronic dosing 7 days; for bone calcium mobilization, result in words: 130 and 260 pmol/day

| SMILES | intestinal calcium transport, result in words [1] | inducing differentiation of HL-60 cells to the monocyte (HL-60 cells) | selectivity bone calcium mobilization versus intestinal calcium transport, in words [2] | bone calcium mobilization, result in words [2] | bone calcium mobilization activity relative to 1,25-(OH)2D3 ([2]; chronic dosing, 7 days, 'likely to be') | activity on bone calcium mobilization (serum calcium) relative to the native hormone ([2]; 130 pmol/day, 7 days, 'at least 10 and possible 100-1,000 times') |
| --- | --- | --- | --- | --- | --- | --- |
| C=C1/C(=C\C=C2/CCC[C@]3(C)[C@@H]([C@H](C)CCCC(C)(C)O)CC[C@@H]23)C[C@@H](O)C[C@@H]1O [1,25-(OH)2D3, 1,25-dihydroxyvitamin D3, reference compound] | expected elevation | – | – | – | – | – |
| C=C1[C@H](O)CC(=C/C=C2\CCC[C@]3(C)[C@@H]([C@H](C)CCCC(C)(C)O)CC[C@@H]23)C[C@H]1O [2-Methylene-19-Nor-1,25-(OH)2D3, 1α,25-dihydroxy-2-methylene-19-nor-vitamin D3] | no intestinal calcium transport activity | activity similar to 1,25-(OH)2D3 | selective for the mobilization of calcium from bone | extremely strong bone calcium mobilization | 10-100 times | – |
| C=C1[C@H](O)CC(=C/C=C2\CCC[C@]3(C)[C@@H]([C@@H](C)CCCC(C)(C)O)CC[C@@H]23)C[C@H]1O [2-Methylene-19-Nor-20S-1,25-(OH)2D3, (20S)-1α,25-dihydroxy-2-methylene-19-nor-vitamin D3] | no significant change | extremely potent | selective for the mobilization of calcium from bone | most potent compound tested | – | at least 10 times |
